# Test results reported in patent US11851428B2, “Activator of TREK (TWIK RElated K+channels) channels” (ONO PHARMACEUTICAL CO., LTD., priority 2016, dated 2023).
# Entries after “also recorded” stand apart in the source; their conditions may differ. Read-outs that look alike come from different tables or passages of the source.
# How the values were obtained:
# [1] = tested on: ICR mice; experiment: acetic acid writhing assay; assay type: in vivo, mouse; conditions: for number of writhes induced by acetic acid: ICR mice, 2 h before acetic acid i.p., counted for 30 min, vs vehicle; for number of writhes induced by acetic acid (FIGURE legend): mouse, p.o., dose not stated in the legend, *p<0.05 vs vehicle
# Experimental: d. Analgesic Effect in Acetic Acid Writhing Assay
# ICR mice were pretreated with vehicle (0.5 w/v % methyl cellulose, p.o.) or Example 1-25 compounds (0.3, 1, 3 mg/kg, p.o.) or Example 2 compounds (1, 10, 300 mg/kg, p.o.) or indomethacin (10 mg/kg, p.o.). Compounds were suspended in 0.5 w/v % methyl cellulose and indomethacin was dissolved in 0.7% sodium bicarbonate. All drugs were administered in a volume of 10 mL/kg. Two hours after administration of the disclosed compounds and vehicle, or one hour after administration of indomethacin, the animals were injected with acetic acid (0.7% v/v in saline, 10 mL/kg, i.p.). The number of writhes (characterized by contraction of the abdominal musculature and extension of the limbs) was then counted for 30 min. Analgesic effect was evaluated by comparing the number of writhes between the rest compounds group and the vehicle group.
# [2] = molecular target: T1, human TREK-1 (Homo sapiens, UniProt O95069); experiment: thallium flux assay (TREK1 activation normalized to BL-1249); assay type: cell-based; conditions: for activation at 10 µM / TREK1 activation RBL-1249 (%): concentration of Example compound 10 μM
# T1 construct: expressed in transfected cells
# T1 sequence (O95069 1-426): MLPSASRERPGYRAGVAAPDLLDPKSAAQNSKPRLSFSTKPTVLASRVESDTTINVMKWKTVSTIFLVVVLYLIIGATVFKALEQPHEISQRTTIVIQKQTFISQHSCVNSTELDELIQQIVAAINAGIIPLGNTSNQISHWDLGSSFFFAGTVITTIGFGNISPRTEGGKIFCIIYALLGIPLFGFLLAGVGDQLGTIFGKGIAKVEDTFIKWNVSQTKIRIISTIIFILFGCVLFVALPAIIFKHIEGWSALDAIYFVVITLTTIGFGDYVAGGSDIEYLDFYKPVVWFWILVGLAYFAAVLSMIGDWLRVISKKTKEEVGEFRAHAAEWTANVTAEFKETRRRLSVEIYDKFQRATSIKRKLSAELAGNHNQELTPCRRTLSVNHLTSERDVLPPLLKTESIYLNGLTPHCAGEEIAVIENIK
# [3] = normalized to 10 μM BL-1249, CHO-K1 cells stably expressing human TREK-1, read-out: TREK1 activation RBL-1249 (%)
# [4] = normalized to 10 μM BL-1249, CHO-K1 cells stably expressing human TREK-1
"activation at 10 µM [2, 3]",Compound,"TREK1 activation RBL-1249 (%) [2, 4]",also measured
82%,"O=C(NCc1ccc(OC(F)(F)F)cc1F)c1ccc2ncnn2c1 [Example 1-25, N-[2-fluoro-4-(trifluoromethoxy)benzyl][1,2,4]triazolo[1,5-a]pyridine-6-carboxamide]",–,"number of writhes induced by acetic acid ([1]; 3 mg/kg p.o., 3 mg/kg): significantly decreased the number of writhes; also recorded: the same degree as indomethacin 10 mg/kg; number of writhes induced by acetic acid (FIGURE legend) [1]: inhibit the number of writhes induced by acetic acid"
–,"Cc1cc(OC(F)(F)F)ccc1CNC(=O)c1ccc(-n2cncn2)nc1 [Example 2, N-[2-Methyl-4-(trifluoromethoxy)benzyl]-6-(1H-1,2,4-triazol-1-yl)nicotinamide]",–,"number of writhes induced by acetic acid ([1]; 300 mg/kg p.o., 300 mg/kg): significantly decreased the number of writhes; also recorded: the same degree as indomethacin 10 mg/kg; number of writhes induced by acetic acid (FIGURE legend) [1]: inhibit the number of writhes induced by acetic acid; activation at 30 µM ([2]; concentration of Example compound 30 μM, normalized to 10 μM BL-1249, CHO-K1 cells stably expressing human TREK-1, read-out: TREK1 activation RBL-1249 (%)): 20%"
–,"O=C(NCc1ccc(OC(F)(F)F)cc1Cl)c1cnc2ccnn2c1 [Example 9-8, N-[[2-chloro-4-(trifluoromethoxy)phenyl]methyl]pyrazo1o[1,5-a]pyrimidine-6-carboxamide]",106%,–
–,Cc1nnc2cc(C(=O)NCc3ccc(OC(F)(F)F)cc3Cl)ccn12 [Example 9-11],126%,–
79%,"Nc1c(C(=O)NCc2ccc(OC(F)(F)F)cc2Cl)cnc2ccnn12 [Example 9-14, 7-amino-N-[2-chloro-4-(trifluoromethoxy)benzyl]pyrazolo[1,5-a]pyrimidine-6-carboxamide]",–,–
59%,"O=C(NCc1ccc(OC(F)(F)F)cc1Cl)c1ccc(-c2ncc[nH]2)cc1 [Example 9-15, N-[2-chloro-4-(trifluoromethoxy)benzyl]-4-(1H-imidazol-2-yl)benzamide]",–,–
95%,"O=C(NCc1ccc(OC(F)(F)F)cc1Cl)c1ccc2nnnn2c1 [Example 9-16, N-[2-chloro-4-(trifluoromethoxy)benzyl]tetrazolo[1,5-a]pyridine-6-carboxamide]",–,–
–,O=C(NCc1ccc(OC(F)(F)F)cc1Cl)c1ccn2nnnc2c1 [Example 9-17],78%,–
68%,"Cc1cc2ncc(C(=O)NCc3ccc(OC(F)(F)F)cc3Cl)cn2n1 [Example 9-19, N-[2-chloro-4-(trifluoromethoxy)benzyl]-2-methylpyrazolo[1,5-a]pyrimidine-6-carboxamide]",–,–
–,"CS(=O)(=O)Nc1ccc(C(=O)NCc2ccc(Cl)cc2Cl)cc1 [N-(2,4-dichlorobenzyl)-4-[(methylsulfonyl)amino]benzamide]",–,"activation at 30 µM ([2]; CHO-K1, read-out: TREK1 activation RBL-1249 (%)): 54%"
